# Biological target: T1, human full-length MKNK1 (Homo sapiens, UniProt Q9BUB5, T385D)
# T1 construct: GST (N); purchased Carna Biosciences 02-145; host or cells: insect cells (baculovirus expression system)
# Experiment: MKNK1 kinase high ATP assay (TR-FRET)
# Format: biochemical
# Settings: TR-FRET, high ATP (2 mM final), 15 min preincubation with enzyme, GST-MKNK1 (T344D); read-out: MKNK1 IC50
# Procedure: MKNK1 Kinase High ATP Assay
# MKNK1-inhibitory activity at high ATP of compounds of the present invention after their preincubation with MKNK1 was quantified employing the TR-FRET-based MKNK1 high ATP assay as described in the following paragraphs.
# A recombinant fusion protein of Glutathione-S-Transferase (GST, N-terminally) and human full-length MKNK1 (amino acids 1-424 and T344D of accession number BAA 19885.1), expressed in insect cells using baculovirus expression system and purified via glutathione sepharose affinity chromatography, was purchased from Carna Biosciences (product no 02-145) and used as enzyme. As substrate for the kinase reaction the biotinylated peptide biotin-Ahx-IKKRKLTRRKSLKG (C-terminus in amide form) was used, which can be purchased e.g. from the company Biosyntan (Berlin-Buch, Germany).
# For the assay 50 nL of a 100 fold concentrated solution of the test compound in DMSO was pipetted into a black low volume 384 well microtiter plate (Greiner Bio-One, Frickenhausen, Germany), 2 μL of a solution of MKNK1 in aqueous assay buffer [50 mM HEPES pH 7.5, 5 mM MgCl2, 1.0 mM dithiothreitol, 0.005% (v/v) Nonidet-P40 (Sigma)] was added and the mixture was incubated for 15 min at 22° C. to allow pre-binding of the test compounds to the enzyme before the start of the kinase reaction. Then the kinase reaction was started by the addition of 3 μL of a solution of adenosine-tri-phosphate (ATP, 3.3 mM=>final conc. in the 5 μL assay volume is 2 mM) and substrate (0.1 μM=>final conc. in the 5 μL assay volume is 0.06 μM) in assay buffer and the resulting mixture was incubated for a reaction time of 30 min at 22° C. The concentration of MKNK1 was adjusted depending of the activity of the enzyme lot and was chosen appropriate to have the assay in the linear range, typical concentrations were in the range of 0.003 μg/mL. The reaction was stopped by the addition of 5 μL of a solution of TR-FRET detection reagents (5 nM streptavidine-XL665 [Cisbio Bioassays, Codolet, France] and 1 nM anti-ribosomal protein S6 (pSer236)-antibody from Invitrogen [#44921G] and 1 nM LANCE EU-W1024 labeled ProteinG [Perkin-Elmer, product no. AD0071]) in an aqueous EDTA-solution (100 mM EDTA, 0.1% (w/v) bovine serum albumin in 50 mM HEPES pH 7.5).
# The resulting mixture was incubated for 1 h at 22° C. to allow the formation of complex between the phosphorylated biotinylated peptide and the detection reagents. Subsequently the amount of phosphorylated substrate was evaluated by measurement of the resonance energy transfer from the Eu-chelate to the streptavidine-XL. Therefore, the fluorescence emissions at 620 nm and 665 nm after excitation at 350 nm were measured in a TR-FRET reader, e.g. a Rubystar (BMG Labtechnologies, Offenburg, Germany) or a Viewlux (Perkin-Elmer). The ratio of the emissions at 665 nm and at […] was taken as the measure for the amount of phosphorylated substrate. The data were normalised (enzyme reaction without inhibitor=0% inhibition, all other assay components but no enzyme=100% inhibition).
# T1 sequence (Q9BUB5 1-424 isoform Q9BUB5-2 T344D): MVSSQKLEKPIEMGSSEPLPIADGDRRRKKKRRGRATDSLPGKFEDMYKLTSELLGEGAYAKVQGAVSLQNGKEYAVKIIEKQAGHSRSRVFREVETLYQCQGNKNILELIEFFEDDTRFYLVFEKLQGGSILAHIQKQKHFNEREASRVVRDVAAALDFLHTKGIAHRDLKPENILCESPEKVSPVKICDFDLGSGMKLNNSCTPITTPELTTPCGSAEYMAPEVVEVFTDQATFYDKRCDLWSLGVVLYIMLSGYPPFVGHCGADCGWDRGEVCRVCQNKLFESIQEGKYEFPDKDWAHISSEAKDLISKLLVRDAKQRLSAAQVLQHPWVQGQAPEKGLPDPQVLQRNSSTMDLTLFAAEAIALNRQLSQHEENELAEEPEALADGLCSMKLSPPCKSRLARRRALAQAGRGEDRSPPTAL
row,Compound,IC50 [nM]
1,"O=C([C@H]1CCc2c(sc3ncnc(Nc4ccc5nnsc5c4)c23)C1)N1CC2(COC2)C1 [Example 20, [(7S)-4-(1,2,3-Benzothiadiazol-6-ylamino)-5,6,7,8-tetrahydro[1]benzothieno[2,3-d]pyrimidin-7-yl](2-oxa-6-azaspiro[3.3]hept-6-yl)methanone]",16
2,"C[C@H]1COCCN1C(=O)[C@H]1CCc2c(sc3ncnc(Nc4ccc5nnsc5c4)c23)C1 [Example 5, [(7S)-4-(1,2,3-Benzothiadiazol-6-ylamino)-5,6,7,8-tetrahydro[1]benzothieno[2,3-d]pyrimidin-7-yl][(3S)-3-methylmorpholin-4-yl]methanone]",12
3,"C[C@@H]1COC[C@@H](C)N1C(=O)[C@H]1CCc2c(sc3ncnc(Nc4ccc5nnsc5c4)c23)C1 [Example 9, [(7S)-4-(1,2,3-Benzothiadiazol-6-ylamino)-5,6,7,8-tetrahydro[1]benzothieno[2,3-d]pyrimidin-7-yl][(3R,5R)-3,5-dimethylmorpholin-4-yl]methanone]",5.4
4,"O=C([C@H]1CCc2c(sc3ncnc(Nc4ccc5nnsc5c4)c23)C1)N1CCC1 [Example 24, Azetidin-1-yl[(7S)-4-(1,2,3-benzothiadiazol-6-ylamino)-5,6,7,8-tetrahydro[1]benzothieno[2,3-d]pyrimidin-7-yl]methanone]",33
5,"CN(C)[C@H]1CCN(C(=O)[C@H]2CCc3c(sc4ncnc(Nc5ccc6nnsc6c5)c34)C2)C1 [Example 13, [(7S)-4-(1,2,3-Benzothiadiazol-6-ylamino)-5,6,7,8-tetrahydro[1]benzothieno[2,3-d]pyrimidin-7-yl][(3S)-3-(dimethylamino)pyrrolidin-1-yl]methanone]",6.1
6,"C[C@@H]1COCCN1C(=O)[C@H]1CCc2c(sc3ncnc(Nc4ccc5nnsc5c4)c23)C1 [Example 4, [(7S)-4-(1,2,3-Benzothiadiazol-6-ylamino)-5,6,7,8-tetrahydro[1]benzothieno[2,3-d]pyrimidin-7-yl][(3R)-3-methylmorpholin-4-yl]methanone]",11
7,"CN(C)C1CN(C(=O)[C@H]2CCc3c(sc4ncnc(Nc5ccc6nnsc6c5)c34)C2)C1 [Example 14, [(7S)-4-(1,2,3-Benzothiadiazol-6-ylamino)-5,6,7,8-tetrahydro[1]benzothieno[2,3-d]pyrimidin-7-yl][3-(dimethylamino)azetidin-1-yl]methanone]",26
8,"C[C@H]1CN(C(=O)[C@H]2CCc3c(sc4ncnc(Nc5ccc6nnsc6c5)c34)C2)C[C@H](C)O1 [Example 10, [(7S)-4-(1,2,3-Benzothiadiazol-6-ylamino)-5,6,7,8-tetrahydro[1]benzothieno[2,3-d]pyrimidin-7-yl][(2S,6S)-2,6-dimethylmorpholin-4-yl]methanone]",5
9,"COCCN(C)C(=O)[C@H]1CCc2c(sc3ncnc(Nc4ccc5nnsc5c4)c23)C1 [Example 2, (7S)-4-(1,2,3-Benzothiadiazol-6-ylamino)-N-(2-methoxyethyl)-N-methyl-5,6,7,8-tetrahydro[1]benzothieno[2,3-d]pyrimidine-7-carboxamide]",9.4

# Further lines, results first:
row,IC50 [nM],Compound
1,1.9,"COc1cc2nnsc2cc1Nc1ncnc2sc3c(c12)CC[C@H](C(=O)N1C[C@H]2C[C@@H]1CN2C)C3 [Example 58, {(7S)-4-[(5-Methoxy-1,2,3-benzothiadiazol-6-yl)amino]-5,6,7,8-tetrahydro[1]benzothieno[2,3-d]pyrimidin-7-yl}[(1R,4R)-5-methyl-2,5-diazabicyclo[2.2.1]hept-2-yl]methanone]"
2,7,"CN(C)C(=O)CN(C)C(=O)[C@H]1CCc2c(sc3ncnc(Nc4ccc5nnsc5c4)c23)C1 [Example 29, (7S)-4-(1,2,3-Benzothiadiazol-6-ylamino)-N-[2-(dimethylamino)-2-oxoethyl]-N-methyl-5,6,7,8-tetrahydro[1]benzothieno[2,3-d]pyrimidine-7-carboxamide]"
3,1.7,"COc1cc2nnsc2cc1Nc1ncnc2sc3c(c12)CC[C@H](C(=O)N(C)CCCN(C)C)C3 [Example 43, (7S)—N-[3-(Dimethylamino)propyl]-4-[(5-methoxy-1,2,3-benzothiadiazol-6-yl)amino]-N-methyl-5,6,7,8-tetrahydro[1]benzothieno[2,3-d]pyrimidine-7-carboxamide]"
4,8.6,"CCN(CCO)C(=O)[C@H]1CCc2c(sc3ncnc(Nc4ccc5nnsc5c4)c23)C1 [Example 28, (7S)-4-(1,2,3-Benzothiadiazol-6-ylamino)-N-ethyl-N-(2-hydroxyethyl)-5,6,7,8-tetrahydro[1]benzothieno[2,3-d]pyrimidine-7-carboxamide]"
5,1.7,"COc1cc2nnsc2cc1Nc1ncnc2sc3c(c12)CC[C@H](C(=O)N1CCN(CCN(C)C)CC1)C3 [Example 49, {4-[2-(Dimethylamino)ethyl]piperazin-1-yl}{(7S)-4-[(5-methoxy-1,2,3-benzothiadiazol-6-yl)amino]-5,6,7,8-tetrahydro[1]benzothieno[2,3-d]pyrimidin-7-yl}methanone]"
6,14,"O=C([C@H]1CCc2c(sc3ncnc(Nc4ccc5nnsc5c4)c23)C1)N1CC(F)(F)C1 [Example 31, [(7S)-4-(1,2,3-Benzothiadiazol-6-ylamino)-5,6,7,8-tetrahydro[1]benzothieno[2,3-d]pyrimidin-7-yl](3,3-difluoroazetidin-1-yl)methanone]"

# From patent US20170197979A1, “BENZOTHIADIAZOLAMINES” (BAYER PHARMA AKTIENGESELLSCHAFT, priority 2014, published 2017)
